These results are taken from paper PMC10284923 (The ISME Journal, 2023).

Read-outs that look alike come from different tables or passages of the source.

In experiment [1] the target is CC9311_PhnD1. The class given is binding, Synechococcus sp. CC9311. Particulars: read-out: Dissociation constant (KD).
Experiment [2] deals with WH8102_PhnD1 (Parasynechococcus marenigrum, UniProt Q7U716). The class given is binding, Synechococcus sp. WH8102. Conditions: read-out: Dissociation constant (KD).
Experiment [3] has as its system Synechococcus MITS9220. The class given is cell-based. The protocol:
(§1) For treatment conditions containing alternative P compounds, 50 µM NaH2PO4 was replaced with 50 µM phosphite (Na2HPO3·5H2O) or methylphosphonate. In P-deplete media, an equal volume of water was added instead of a P compound. Experimental cultures were started from mid-logarithmic cultures grown in phosphate-containing PCR-S11 media. A small inoculum (~100 µL) was used to minimise the transfer of phosphate from stock cultures. Four biological replicates were tested for each experimental condition. Growth was regularly monitored via cell counts using a CytoFLEX S flow cytometer. […] Phosphate concentration in all treatment conditions was monitored regularly for the duration of the experiments using a Phosphate Colorimetric kit following the manufacturer’s instructions (Sigma-Aldrich) with a detection limit of 0.5 µM.

Experiment [4] concerns Synechococcus WH8102. The class given is cell-based. On the procedure: as §1
In experiment [5] the target is Pm_PtxB. Conditions: read-out: Dissociation constant (KD); cited from earlier work.
Experiment [6] deals with Prochlorococcus MIT9301. Particulars: cited from earlier work.
The test system of experiment [7] is Prochlorococcus MIT9313. Particulars: cited from earlier work.
Experiment [8] deals with Prochlorococcus MED4. Particulars: cited from earlier work.
In experiment [9] the target is Ec_PhnD. Conditions: intrinsic fluorescence, read-out: Dissociation constant (KD); cited from earlier work.
Experiment [10] concerns the target Ec_PhnD. Particulars: ITC, dash = binding not detected, read-out: Dissociation constant (KD); cited from earlier work.

Broadly, the Kd is the constant that tells how readily two partners part at equilibrium.

WH8102_PhnD1, sequence (Q7U716 27-306 limits assumed): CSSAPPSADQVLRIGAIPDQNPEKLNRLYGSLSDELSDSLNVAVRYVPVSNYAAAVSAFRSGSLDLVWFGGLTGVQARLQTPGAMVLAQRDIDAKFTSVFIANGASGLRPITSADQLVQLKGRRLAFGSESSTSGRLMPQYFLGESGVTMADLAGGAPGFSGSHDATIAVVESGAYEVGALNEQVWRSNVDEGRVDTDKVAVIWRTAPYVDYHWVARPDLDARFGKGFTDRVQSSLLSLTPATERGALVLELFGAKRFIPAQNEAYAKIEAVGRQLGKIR

As for phosphite [Pt], the results for the Kd in experiment [1], in experiment [2] and in [5] were 1700 ± 900 nM, 4300 ± 500 nM and 2000 nM, respectively. The “Growth as sole P source” value in [3] and in experiment [4] was “do not exhibit a clearly defined exponential growth” each time. In [6], the “Use as sole P source to support growth” value was “can use Pt or MPn as the sole P source to support its growth”. Further, the “Growth and utilisation of P source” value was “unable to grow and utilise” in [7]; “unable to grow and utilise” in [8].

As to `O=P(O)(O)O` [Pi, inorganic phosphate], the “Growth as sole P source” value in experiment [3] (50 µM P source, PCR-S11 medium, cell density by flow cytometry) is “growth seen”; in [4] (50 µM P source, PCR-S11 medium, cell density by flow cytometry, 49 days), “growth seen”. Besides, the “Growth and utilisation of P source” value in experiment [7] and in [8] was “only able to utilise Pi for their growth” each time.

Regarding `NCCP(=O)(O)O` [2-AEP, 2-aminoethylphosphonate], the Kd in experiment [9] was less than 50 nM; in experiment [10], 100 nM.
